# System: 454973-116-R2-J3-PDC spheroids, viability, % test/control
# Experiment: Anticancer human tumor 454973-116-R2-J3-PDC patient-derived pancreatic carcinoma cell line growth inhibition [GQUAD]
# Settings: spheroids with HUVEC and MSC; for IC50: curve of first compound; for viability, T/C: stronger effect = lower value
# In short: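 Tumor cells were grown as complex spheroids with HUVEC endothelial cells and mesenchymal stem cells as stroma. G-quadruplex stabilizers were combined with targeted agents over half-log dilutions from near the clinical Cmax, or from 10 microM.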
# [1] = second compound 0.0316 µM, first compound 0.0316 µM
# [2] = second compound 0.0316 µM, first compound 0.1 µM
# [3] = second compound 0.0316 µM, first compound 0.316 µM
# [4] = second compound 0.0316 µM, first compound 1 µM
# [5] = second compound 0.0316 µM, first compound 3.16 µM
# [6] = second compound 0.0316 µM, first compound 10 µM
# [7] = second compound 0.1 µM, first compound 0.0316 µM
# [8] = second compound 0.1 µM, first compound 0.1 µM
# [9] = second compound 0.1 µM, first compound 0.316 µM
# [10] = second compound 0.1 µM, first compound 1 µM
# [11] = second compound 0.1 µM, first compound 3.16 µM
# [12] = second compound 0.1 µM, first compound 10 µM
# [13] = second compound 0.316 µM, first compound 0.0316 µM
# [14] = second compound 0.316 µM, first compound 0.1 µM
# [15] = second compound 0.316 µM, first compound 0.316 µM
# [16] = second compound 0.316 µM, first compound 1 µM
# [17] = second compound 0.316 µM, first compound 3.16 µM
# [18] = second compound 0.316 µM, first compound 10 µM
# [19] = second compound 1 µM, first compound 0.0316 µM
# [20] = second compound 1 µM, first compound 0.1 µM
# [21] = second compound 1 µM, first compound 0.316 µM
# [22] = second compound 1 µM, first compound 1 µM
# [23] = second compound 1 µM, first compound 3.16 µM
# [24] = second compound 1 µM, first compound 10 µM
# [25] = second compound 3.16 µM, first compound 0.0316 µM
# [26] = second compound 3.16 µM, first compound 0.1 µM
# [27] = second compound 3.16 µM, first compound 0.316 µM
# [28] = second compound 3.16 µM, first compound 1 µM
# [29] = second compound 3.16 µM, first compound 3.16 µM
# [30] = second compound 3.16 µM, first compound 10 µM
# [31] = second compound 10 µM, first compound 0.0316 µM
# [32] = second compound 10 µM, first compound 0.1 µM
# [33] = second compound 10 µM, first compound 0.316 µM
# [34] = second compound 10 µM, first compound 1 µM
# [35] = second compound 10 µM, first compound 3.16 µM
# [36] = second compound 10 µM, first compound 10 µM
# 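Further: spheroids exposed to compounds for seven days.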
# 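Wherever viability, T/C is given: 100% = DMSO vehicle control viability.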
structure (smiles),measurement,setting,value
CC1COCCN1c1cc(C2(O)CC3CCC(C2)O3)c2cnn(-c3ccn[nH]3)c2n1 (stereo unspecified) + Cc1cnc(CNC(=O)c2c(=O)c3ccc(N4CCCN(C)CC4)nc3n3c2sc2ccccc23)cn1,IC50,second compound 0.0316 µM,0.0318 µM
same,IC50,second compound 0.1 µM,< 0.0316 µM
same,IC50,second compound 0.316 µM,< 0.0316 µM
same,IC50,second compound 1 µM,< 0.0316 µM
same,IC50,second compound 3.16 µM,< 0.0316 µM
same,IC50,second compound 10 µM,< 0.0316 µM
same,"viability, T/C",[1],50.7%
same,"viability, T/C",[2],27.5%
same,"viability, T/C",[3],19.5%
same,"viability, T/C",[4],20.4%
same,"viability, T/C",[5],18.7%
same,"viability, T/C",[6],9.73%
same,"viability, T/C",[7],35%
same,"viability, T/C",[8],22.3%
same,"viability, T/C",[9],19.1%
same,"viability, T/C",[10],19%
same,"viability, T/C",[11],17.7%
same,"viability, T/C",[12],12.7%
same,"viability, T/C",[13],29.6%
same,"viability, T/C",[14],25.4%
same,"viability, T/C",[15],24.9%
same,"viability, T/C",[16],22%
same,"viability, T/C",[17],18.3%
same,"viability, T/C",[18],10.8%
same,"viability, T/C",[19],38.9%
same,"viability, T/C",[20],29.1%
same,"viability, T/C",[21],27.5%
same,"viability, T/C",[22],23.8%
same,"viability, T/C",[23],20%
same,"viability, T/C",[24],11.7%
same,"viability, T/C",[25],37.9%
same,"viability, T/C",[26],32.3%
same,"viability, T/C",[27],31.6%
same,"viability, T/C",[28],23.4%
same,"viability, T/C",[29],18.2%
same,"viability, T/C",[30],7.65%
same,"viability, T/C",[31],0.12%
same,"viability, T/C",[32],0.16%
same,"viability, T/C",[33],0.21%
same,"viability, T/C",[34],0.15%
same,"viability, T/C",[35],0.23%
same,"viability, T/C",[36],0.19%
Cc1cccc(N(C)C(=O)C2C(O)CCN2c2nc(C)cc(C(F)(F)F)c2C#N)c1 (stereo unspecified) + Cc1cnc(CNC(=O)c2c(=O)c3ccc(N4CCCN(C)CC4)nc3n3c2sc2ccccc23)cn1,IC50,second compound 0.0316 µM,> 10 µM
same,IC50,second compound 0.1 µM,> 10 µM
same,IC50,second compound 0.316 µM,> 10 µM
same,IC50,second compound 1 µM,> 10 µM
same,IC50,second compound 3.16 µM,> 10 µM
same,IC50,second compound 10 µM,< 0.0316 µM
same,"viability, T/C",[1],103%
same,"viability, T/C",[2],96.8%
same,"viability, T/C",[3],107%
same,"viability, T/C",[4],87.5%
same,"viability, T/C",[5],108%
same,"viability, T/C",[6],93.4%
same,"viability, T/C",[7],88.2%
same,"viability, T/C",[8],74.3%
same,"viability, T/C",[9],71.9%
same,"viability, T/C",[10],68.7%
same,"viability, T/C",[11],70.2%
same,"viability, T/C",[12],69.9%
same,"viability, T/C",[13],74.5%
same,"viability, T/C",[14],71.5%
same,"viability, T/C",[15],71.3%
same,"viability, T/C",[16],67.6%
same,"viability, T/C",[17],70.8%
same,"viability, T/C",[18],66.1%
same,"viability, T/C",[19],71.9%
same,"viability, T/C",[20],65.5%
same,"viability, T/C",[21],61.2%
same,"viability, T/C",[22],65.2%
same,"viability, T/C",[23],65%
same,"viability, T/C",[24],70%
same,"viability, T/C",[25],64.2%
same,"viability, T/C",[26],59.4%
same,"viability, T/C",[27],62.1%
same,"viability, T/C",[28],65.3%
same,"viability, T/C",[29],58.2%
same,"viability, T/C",[30],68.4%
same,"viability, T/C",[31],0.75%
same,"viability, T/C",[32],16.9%
same,"viability, T/C",[33],51.1%
same,"viability, T/C",[34],34.8%
same,"viability, T/C",[35],0.59%
same,"viability, T/C",[36],0.31%
O=C(c1cc(Cc2n[nH]c(=O)c3ccccc23)ccc1F)N1CCN(C(=O)C2CC2)CC1 + Cc1cnc(CNC(=O)c2c(=O)c3ccc(N4CCCN(C)CC4)nc3n3c2sc2ccccc23)cn1,IC50,second compound 0.0316 µM,9.01 µM
same,IC50,second compound 0.1 µM,7.58 µM
same,IC50,second compound 0.316 µM,6.21 µM
same,IC50,second compound 1 µM,> 10 µM
same,IC50,second compound 3.16 µM,> 10 µM
same,IC50,second compound 10 µM,< 0.0316 µM
same,"viability, T/C",[1],103%
same,"viability, T/C",[2],85.1%
same,"viability, T/C",[3],90.5%
same,"viability, T/C",[4],82.8%
same,"viability, T/C",[5],80.9%
same,"viability, T/C",[6],46.5%
same,"viability, T/C",[7],81.1%
same,"viability, T/C",[8],80.4%
same,"viability, T/C",[9],72.2%
same,"viability, T/C",[10],65.5%
same,"viability, T/C",[11],65.8%
same,"viability, T/C",[12],44.5%
same,"viability, T/C",[13],69.1%
same,"viability, T/C",[14],67.4%
same,"viability, T/C",[15],61.7%
same,"viability, T/C",[16],65.3%
same,"viability, T/C",[17],54.9%
same,"viability, T/C",[18],45.9%
same,"viability, T/C",[19],60.5%
same,"viability, T/C",[20],65.3%
same,"viability, T/C",[21],64%
same,"viability, T/C",[22],63.7%
same,"viability, T/C",[23],58.2%
same,"viability, T/C",[24],55.4%
same,"viability, T/C",[25],74.2%
same,"viability, T/C",[26],69.1%
same,"viability, T/C",[27],64%
same,"viability, T/C",[28],60.9%
same,"viability, T/C",[29],58.3%
same,"viability, T/C",[30],56.2%
same,"viability, T/C",[31],0.27%
same,"viability, T/C",[32],18.9%
same,"viability, T/C",[33],15.1%
same,"viability, T/C",[34],35.9%
same,"viability, T/C",[35],0.4%
same,"viability, T/C",[36],0.28%
